Source: patent US8507510B2, “Sulfoximine-substituted pyrimidines as CDK- and/or VEGF inhibitors, their production and use as pharmaceutical agents” (Bayer Intellectual Property GmbH, priority 2003, dated 2013)

Key:
MCF7 = assay: Proliferation assay, MCF7; format: cell-based, human; conditions: Homo sapiens, MCF7, 96 h, MCF7 cells, 4 days, crystal violet
Source text: (§1) Cultivated human tumor cells (MCF7, […] human breast cancer cells, related to ATCC HTB22; NCI-H460, human non-small-cell lung cancer cells, ATCC HTB-177, HCT 116, human colon cancer cells, ATCC CCL-247; DU 145, hormone-independent human prostate cancer cells, ATCC HTB-81; MaTu-MDR, hormone-independent, multiple pharmaceutical agent-resistant human breast cancer cells, EPO-GmbH, Berlin) were flattened out at a density of about 5000 cells/measuring point, depending on the growth rate of the respective cells, in a 96-well multititer plate in 200 μl of the corresponding growth medium. After 24 hours, the cells of one plate (zero-point plate) were colored with crystal violet (see below), while the medium of the other plates was replaced by fresh culture medium (200 μl), to which the test substances were added in various concentrations (0 μm, as well as in the range of 0.01-30 μm; the final concentration of the solvent dimethyl sulfoxide was 0.5%). The cells were incubated for 4 days in the presence of test substances. The cell proliferation was determined by coloring the cells with crystal violet: the cells were fixed by adding 20 μl/measuring point of an 11% glutaric aldehyde solution for 15 minutes at room temperature. After three washing cycles of the fixed cells with water, the plates were dried at room temperature. The cells were colored by adding 100 μl/measuring point of a 0.1% crystal violet solution (the pH was set at 3 by adding acetic acid). After three washing cycles of the colored cells with water, the plates were dried at room temperature. The dye was dissolved by adding 100 μl/measuring point of a 10% acetic acid solution. The extinction was determined by photometry at a wavelength of 595 nm The change of cell growth, in percent, was calculated by normalization of the measured values to the extinction values of the zero-point plate (=0%) and the extinction of the untreated (0 μm) cells (=100%).

H460 = assay: Proliferation assay, H460; format: cell-based, human; conditions: Homo sapiens, NCI-H460, 96 h, H460 cells, 4 days, crystal violet
Source text: as §1

DU145 = assay: Proliferation assay, DU145; format: cell-based, human; conditions: Homo sapiens, DU-145, 96 h, DU145 cells, 4 days, crystal violet
Source text: as §1

MaTu-ADR = assay: Proliferation assay, MaTu-ADR; format: cell-based, human; conditions: Homo sapiens, 96 h, MaTu-ADR cells, 4 days, crystal violet
Source text: as §1

CDK1/CycB = CDK1/CycB (Homo sapiens (Human), UniProt P06493); assay: CDK1/CycB kinase assay; format: biochemical; conditions: histone IIIS substrate, 0.5 μm ATP
Sequence of CDK1/CycB (P06493 whole entry, the tested form may be a part): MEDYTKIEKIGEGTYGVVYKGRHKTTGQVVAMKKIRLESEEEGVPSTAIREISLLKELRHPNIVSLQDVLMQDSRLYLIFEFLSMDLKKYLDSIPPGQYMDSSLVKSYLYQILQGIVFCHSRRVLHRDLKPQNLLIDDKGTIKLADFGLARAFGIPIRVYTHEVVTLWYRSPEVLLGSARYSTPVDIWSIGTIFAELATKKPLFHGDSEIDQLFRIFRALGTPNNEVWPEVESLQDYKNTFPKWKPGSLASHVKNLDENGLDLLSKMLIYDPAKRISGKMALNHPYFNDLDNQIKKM
Sequence of CDK1/CycB (P14635 whole entry partner, the tested form may be a part): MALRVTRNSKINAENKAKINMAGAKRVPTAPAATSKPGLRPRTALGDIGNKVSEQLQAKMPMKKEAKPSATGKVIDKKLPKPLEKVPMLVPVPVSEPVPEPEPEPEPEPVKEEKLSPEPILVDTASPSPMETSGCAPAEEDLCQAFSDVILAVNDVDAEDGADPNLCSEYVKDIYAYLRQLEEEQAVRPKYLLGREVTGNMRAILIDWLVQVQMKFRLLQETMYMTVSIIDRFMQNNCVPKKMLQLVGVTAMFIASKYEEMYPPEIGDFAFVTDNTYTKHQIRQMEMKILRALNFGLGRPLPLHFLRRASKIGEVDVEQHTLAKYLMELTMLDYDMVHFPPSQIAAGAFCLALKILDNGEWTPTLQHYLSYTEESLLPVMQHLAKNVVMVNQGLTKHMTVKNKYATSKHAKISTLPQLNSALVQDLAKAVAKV
Method: Recombinant CDK1- and CycB-GST-fusion proteins, purified from baculovirus-infected insect cells (Sf9), were purchased from ProQinase GmbH, Freiburg. Histone IIIS, used as a kinase substrate, is available commercially from the Sigma Company.
The reaction was stopped by adding EDTA solution (250 mmol, pH 8.0, 14 μl/measuring point).
(§2) From each reaction batch, 10 μl was applied to P30 filter strips (Wallac Company), and non-incorporated 33P-ATP was removed by subjecting the filter strips to three washing cycles for 10 minutes each in 0.5% phosphoric acid. After the filter strips were dried for one hour at 70° C., the filter strips were covered with scintillator strips (MeltiLex™ A, Wallac Company) and baked for one hour at 90° C. The amount of incorporated 33P (substrate phosphorylation) was determined by scintillation measurement in a gamma-radiation measuring device (Wallac).

VEGF-R2 = VEGF-R2 (Homo sapiens (Human), UniProt P35968); assay: VEGF receptor-2 kinase assay; format: biochemical; conditions: poly-(Glu4Tyr) substrate, 8 μmol ATP
Sequence of VEGF-R2 (P35968 20-1356, species assumed): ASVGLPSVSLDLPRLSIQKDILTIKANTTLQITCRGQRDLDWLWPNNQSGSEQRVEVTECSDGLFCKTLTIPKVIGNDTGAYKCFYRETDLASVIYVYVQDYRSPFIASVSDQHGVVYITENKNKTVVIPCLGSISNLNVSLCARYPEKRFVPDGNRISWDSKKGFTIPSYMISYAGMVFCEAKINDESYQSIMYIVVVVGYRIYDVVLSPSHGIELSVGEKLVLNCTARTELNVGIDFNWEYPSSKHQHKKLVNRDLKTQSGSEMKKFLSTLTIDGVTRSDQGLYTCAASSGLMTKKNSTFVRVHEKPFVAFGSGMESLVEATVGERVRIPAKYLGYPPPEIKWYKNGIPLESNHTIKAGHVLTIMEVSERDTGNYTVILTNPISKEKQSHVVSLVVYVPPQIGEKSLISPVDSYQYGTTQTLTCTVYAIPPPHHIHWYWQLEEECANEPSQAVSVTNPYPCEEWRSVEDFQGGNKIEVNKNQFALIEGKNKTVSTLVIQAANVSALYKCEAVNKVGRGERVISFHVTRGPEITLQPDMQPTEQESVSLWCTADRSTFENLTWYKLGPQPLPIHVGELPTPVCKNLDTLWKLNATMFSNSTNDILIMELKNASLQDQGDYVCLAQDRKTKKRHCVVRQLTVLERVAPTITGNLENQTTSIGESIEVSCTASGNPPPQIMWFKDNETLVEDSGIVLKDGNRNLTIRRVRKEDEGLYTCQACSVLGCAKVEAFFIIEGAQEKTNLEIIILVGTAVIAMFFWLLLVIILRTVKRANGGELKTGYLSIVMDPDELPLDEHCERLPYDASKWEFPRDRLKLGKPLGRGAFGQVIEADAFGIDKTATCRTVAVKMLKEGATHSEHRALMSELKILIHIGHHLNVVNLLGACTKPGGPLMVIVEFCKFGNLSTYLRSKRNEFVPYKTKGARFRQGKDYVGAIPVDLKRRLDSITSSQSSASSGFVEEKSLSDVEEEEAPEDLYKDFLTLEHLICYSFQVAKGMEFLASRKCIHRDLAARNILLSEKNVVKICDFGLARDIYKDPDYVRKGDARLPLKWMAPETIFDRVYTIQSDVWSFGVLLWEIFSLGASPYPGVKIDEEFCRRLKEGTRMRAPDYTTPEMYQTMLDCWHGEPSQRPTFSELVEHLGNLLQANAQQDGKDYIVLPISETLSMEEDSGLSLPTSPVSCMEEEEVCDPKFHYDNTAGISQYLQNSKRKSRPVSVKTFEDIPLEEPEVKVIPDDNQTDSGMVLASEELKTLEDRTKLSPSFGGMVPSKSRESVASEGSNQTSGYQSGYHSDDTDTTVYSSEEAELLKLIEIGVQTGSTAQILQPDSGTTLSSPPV
Method: Recombinant VEGF receptor tyrosine kinase-2 was purified as a GST fusion protein from baculovirus-infected insect cells (Sf9). Poly-(Glu4Tyr), which was used as a kinase substrate, was purchased by the Sigma Company.
VEGF receptor tyrosine kinase (90 ng/measuring point) was incubated for 10 minutes at 22° C. in the presence of various concentrations of test substances (0 μm, as well as within the range of 0.001-30 μm) in 30 μl of assay buffer [40 mmol of Tris/HCl, […], 10 mmol of MgCl2, 1 mmol of MnCl2, 3 μmol of Na ortho-vanadate, 1.0 mmol of dithiothreitol, 8 μmol of adenosine trisphosphate (ATP), 27 μg/measuring point of poly-(Glu4Tyr), 0.2 μCi/measuring point of 33P-gamma ATP, 1% dimethyl sulfoxide]. The reaction was stopped by adding EDTA solution (250 mmol, pH 7.0, 10 μl/measuring point).
as §2

IC50 (MCF7): 180 nM
IC50 (H460): 200 nM
IC50 (DU145): 300 nM
IC50 (CDK1/CycB): 25 nM
IC50 (VEGF-R2): 59 nM
Structure (SMILES): C[C@@H](Nc1nc(Nc2ccc(S(=N)(=O)CCO)cc2)ncc1Br)C(C)(C)O (single isomer, unassigned) [Example 1.15]
IC50 (MaTu-ADR): 300 nM
